Measured values from patent US12357603B2, “Acyl sulfonamides for treating cancer” (Bayer Aktiengesellschaft, priority 2019, dated 2025).

Tests used:
[1] = tested on: MDA-MB-436 cells; assay: Proliferation assay MDA-MB-436, negative control cell line (Alamar Blue, 144 h); format: cell-based; settings: arithmetic mean
Text: (§1) Proliferation Assays for Compound Characterization
(§2) For compound characterization cell survival assays were routinely run in two cell lines. ZR-75-1 is a breast carcinoma cell line containing a focal KAT6A amplification and high KAT6A protein expression. Proliferation of this cell line is inhibited upon treatment with KAT6A inhibitors. As a negative control cell line MDA-MB-436 were used. These cells carry a […] deletion of the KAT6A gene, have a low KAT6A protein expression and are not growth inhibited upon treatment with KAT6A inhibitors.
(§3) For measurements cell lines were plated at the below indicated concentration per […] in 96-well plates in a humidified incubator at 37° C. and 5% CO2.
MDA-MB-436 (CLS, 300278; breast adenocarcinoma); 3000 cells per well; culture medium: DMEM/Ham's F12 (Biochrom #FG 4815) medium containing 2.5% FBS (Biochrom #S0615).
(§4) 24 hours later, cells were treated with compounds (stock solution, 10 mM in DMSO) using the HP D300 Digital Dispenser in a concentration range of 2.0×10E-5 M to 2.0×10E-9 M in a single-dot curve with 9 dilutions and a DMSO concentration of 0.2%. Each sample was prepared as triplicate and rim wells were excluded. Plates were incubated at 37° C. and 5% CO2 for 144 h. Cell viability was measured by adding 10 μL of Alamar Blue Reagent (Invitrogen #DAL 1100) and plates were incubated for 2 h at 37° C. and 5% CO2. Fluorescence was measured at 590 nm wavelength with a Tecan Spark or Victor X3 MTP-Reader (PerkinElmer).

[2] = tested on: ZR-75-1 cells; assay: Proliferation assay ZR-75-1 (Alamar Blue, 144 h); format: cell-based; settings: Homo sapiens, ZR-75-1, 144 h, arithmetic mean, read-out: ZR75-1 proliferation assay, EC50 [M] (arithmetic mean)
Text: as §1, §2, §3
ZR-75-1 (ATCC, CRL-1500; breast carcinoma); 3000 cells per well; culture medium: RPMI 1640 (Biochrom #FG 1215) medium containing 2.5% FBS (Biochrom #S0615).
as §4

[3] = tested on: ESR1 transcription (luciferase signal in MVLN cells); assay: Repression of ESR1 transcription, luciferase reporter in MVLN cells; format: cell-based; settings: inhibition of luciferase signal in MVLN cells, arithmetic mean
Text: Repression of ESR1 Transcription Upon Treatment of Cells with Compounds
KAT6A controls transcription of the ESR1 gene in breast cancer cells. Compound treatment that interferes with this mechanism was quantified using MVLN cells. These cells constitutively express the ER and are stably transfected with the luciferase (LUC) reporter gene and the corresponding hormone responsive element derived from the 5′-flanking region of the Xenopus Vitellogenin A2 gene (Pons et al., 1990, Demirpense et al., 1993, Joyeux et al., 1993). The repressive effect on ERα transcription activity of a test chemical is directly related to the luciferase measured in the lysate of treated MVLN cells.
Each sample was prepared as duplicate and rim wells were excluded. For luciferase signal determination 100 μl of a 1:1 mixture of Steadylite plus (Perkin Elmer; 6016759) and assay medium was added after 24 h for 15 minutes and measured in Victor X3 (Perkin Elmer). To exclude any effects caused by cell loss during the treatment, cell density was determined using Alamar Blue (Invitrogen; DAL1100). Prior to the luciferase measurement 10 μl Alamar Blue were added to each well and the plates were incubated for 2 h in the incubator. Then fluorescence was measured with Victor X3 (Perkin Elmer) at 530 nm/590 nm.

[4] = target: Recombinant human His-tagged Kat6a protein (amino acids 194-810) (Homo sapiens (Human), UniProt Q92794); assay: Kat6a activity assay (TR-FRET, acetylation of biotinylated Histone-H4-derived peptide); format: biochemical; settings: 60 mins at 22° C., read-out: KAT6A-DPF/HAT domain IC50 [mol/l] (arithmetic mean)
Text: Kat6a inhibitory activities of the compounds described in the present invention were quantified using a Fluorescence Resonance Energy Transfer (TR-FRET) assay which measures acetylation of a synthetic, biotinylated Histone-H4-derived peptide by the enzyme.
Recombinant human His-tagged Kat6a protein (amino acids 194-810), was purified in-house from Baculovirus-infected insect cells (Sf9). Histone H4 peptide (amino acids 1-24, […]-VLRD-K(Btn)-amide), which was used as substrate, was synthesized by Biosyntan GmbH, Berlin, Germany. Acetyl Coenzyme A was purchased from Sigma-Aldrich (#A-2056).
Kat6a was incubated for 60 mins at 22° C. in the presence of different concentrations of test substances (0 μM, and within the range 0.01-20 μM) in assay buffer [25 mM Tris/HCl pH 8, 1 mM EGTA, 2.5 mM Glutathion, 0.02% Chicken Albumin, 0.05% Pluronic F127, 25 mM NaCl, 220 nM H4 peptide and 600 nM Acetyl Coenzym A].
The reaction was stopped by addition of Detection Solution (25 mM HEPES pH 7.5, 0.1% BSA, 22 nM SAXL665 (Cisbio #610SAXLE), 100 μM Anacardic Acid (Enzo #ALX-270-381), 1 nM Anti-Histone H4 (ACETYL K8) Antibody (ABCAM #AB15823) and 0.5 nM Anti-Rabbit IgG Eu (Perkin Elmer #AD0083).
The fluorescence emission at 620 nm and 665 nm after excitation at 330-350 nm was measured in a TR-FRET measuring instrument, for instance a Rubystar or a Pherastar (both from BMG Lab Technologies, Offenburg, Germany) or a Viewlux (Perkin-Elmer). The ratio of the emission at 665 nm and at […] was used as indicator of the amount of acetylated peptide.
The resulting data (ratio) were normalized, taking 0% inhibition as the mean value of control measurements where all reagents were included. In this case 50 nl DMSO were used instead of compounds. […] IC50 values were determined by regression analysis based on a 4 parameter equation (minimum, maximum, ICM, Hill; Y=Max+(Min−Max)/(1+(X/ICso) Hill) using the Screener Software (Genedata).
Table 5 depicts the IC50 values of selected examples in biochemical KAT6A and KAT6B3 assays.

[5] = Homo sapiens, MDA-MB-436, 144 h

Sequence of Recombinant human His-tagged Kat6a protein (amino acids 194-810) (Q92794 194-810): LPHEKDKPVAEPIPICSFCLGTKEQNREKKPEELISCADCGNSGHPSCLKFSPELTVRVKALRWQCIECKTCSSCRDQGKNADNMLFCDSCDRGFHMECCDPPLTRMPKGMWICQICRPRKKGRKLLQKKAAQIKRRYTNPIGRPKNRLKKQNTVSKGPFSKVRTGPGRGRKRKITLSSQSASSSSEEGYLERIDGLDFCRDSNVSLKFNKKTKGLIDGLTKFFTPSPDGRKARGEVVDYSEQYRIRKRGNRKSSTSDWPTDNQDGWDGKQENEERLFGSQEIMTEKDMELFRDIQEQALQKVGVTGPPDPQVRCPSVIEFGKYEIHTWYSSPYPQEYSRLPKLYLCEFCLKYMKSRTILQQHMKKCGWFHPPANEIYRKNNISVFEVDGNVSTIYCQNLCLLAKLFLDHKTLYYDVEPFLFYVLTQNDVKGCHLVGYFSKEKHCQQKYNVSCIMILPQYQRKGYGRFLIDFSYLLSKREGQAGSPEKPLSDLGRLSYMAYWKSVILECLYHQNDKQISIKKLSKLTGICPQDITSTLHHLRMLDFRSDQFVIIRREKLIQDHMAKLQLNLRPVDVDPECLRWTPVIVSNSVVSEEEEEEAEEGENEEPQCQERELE

SMILES: COCCN(C)c1ccc2cc(C(=O)NS(=O)(=O)c3ccccc3-c3ccccc3)oc2c1 [Example 39, N-([1,1′-Biphenyl]-2-sulfonyl)-6-[(2-methoxyethyl)(methyl)amino]-1-benzofuran-2-carboxamide]
- EC50 [1, 5]: > 20 µM
- EC50 [2]: 3.41e-08 M
- IC50 ([3]; Homo sapiens, MVLN): 100 nM

SMILES: CN(c1ccccc1)c1ccc2cc(C(=O)NS(=O)(=O)c3ccc(Cl)cc3Cl)oc2c1 [Example 9, N-(2,4-Dichlorophenyl)sulfonyl-6-(N-methylanilino)benzofuran-2-carboxamide]
- EC50 [1, 5]: > 20 µM
- EC50 [2]: > 2e-05 M
- IC50 ([3]; Homo sapiens, MVLN): > 20000 nM

SMILES: CN(C)c1ccc2cc(C(=O)NS(=O)(=O)c3c(Cl)cccc3Cl)oc2c1 [Example 98, N-(2,6-Dichlorobenzene-1-sulfonyl)-(dimethylamino)-1-benzofuran-2-carboxamide]
- EC50 [1, 5]: > 20 µM
- EC50 [2]: 8.17e-07 M
- IC50 ([3]; Homo sapiens, MVLN): 603 nM

SMILES: CCCN(C)c1ccc2cc(C(=O)NS(=O)(=O)c3ccccc3-c3ccccc3)oc2c1 [Example 37, N-([1,1′-Biphenyl]-2-sulfonyl)-6-[methyl(propyl)amino]-1-benzofuran-2-carboxamide]
- EC50 [1, 5]: > 20 µM
- EC50 [2]: > 2e-05 M
- IC50 ([3]; Homo sapiens, MVLN): 14000 nM

SMILES: CC(C)Oc1ccccc1S(=O)(=O)NC(=O)c1cc2cc(Br)c(N(C)C)cc2o1 [Example 208, 5-Bromo-6-(dimethylamino)-N-{2-[(propan-2-yl)oxy]benzene-1-sulfonyl}-1-benzofuran-2-carboxamide]
- EC50 [1, 5]: > 20 µM
- EC50 [2]: 1.83e-05 M
- IC50 ([3]; Homo sapiens, MVLN): 14600 nM

SMILES: CCN(C)c1ccc2cc(C(=O)NS(=O)(=O)c3ccc(Cl)cc3Cl)oc2c1 [Example 3, N-(2,4-Dichlorophenyl)sulfonyl-6-[ethyl(methyl)amino]benzofuran-2-carboxamide]
- EC50 [1, 5]: > 20 µM
- EC50 [2]: 2e-05 M
- IC50 ([3]; Homo sapiens, MVLN): 4280 nM

SMILES: CN(C)c1ccc2cc(C(=O)NS(=O)(=O)Cc3ccccn3)oc2c1 [Example 106, 6-(Dimethylamino)-N-[(pyridin-2-yl)methanesulfonyl]-1-benzofuran-2-carboxamide]
- EC50 [1, 5]: > 20 µM
- IC50 ([3]; Homo sapiens, MVLN): > 20000 nM
- IC50 [4]: 3200 nM

SMILES: CN(C)c1ccc2cc(C(=O)NS(=O)(=O)c3ccccc3-c3ccc(CO)cc3)oc2c1 [Example 51, 6-(Dimethylamino)-N-[4′-(hydroxymethyl)[1,1′-biphenyl]-2-sulfonyl]-1-benzofuran-2-carboxamide]
- EC50 [1, 5]: > 20 µM
- EC50 [2]: 1.01e-07 M

SMILES: CN(C)c1ccc2cc(C(=O)NS(=O)(=O)c3cc(Cl)cc4cccnc34)oc2c1 [Example 124, N-(6-Chloroquinolone-8-sulfonyl)-6-(dimethylamino)-1-benzofuran-2-carboxamide]
- EC50 [1, 5]: > 20 µM
- IC50 ([3]; Homo sapiens, MVLN): 254 nM

SMILES: C[C@H](Oc1cccc(OC2CCC2)c1S(=O)(=O)NC(=O)c1cc2ccc(N(C)C)cc2o1)C(F)(F)F (single isomer, unassigned) [Example 221]
- EC50 [1]: 8.25 µM
- IC50 [3]: 582 nM
- IC50 [4]: 44.4 nM

SMILES: CCc1ccc2nc(C)c(S(=O)(=O)NC(=O)c3cc4ccc(N(C)C)cc4o3)n2n1 [Example 94, 6-(Dimethylamino)-N-(6-ethyl-2-methylimidazo[1,2-b]pyridazine-3-sulfonyl)-1-benzofuran-2-carboxamide]
- EC50 [1, 5]: > 20 µM
- IC50 ([3]; Homo sapiens, MVLN): 460 nM
- IC50 [4]: 287 nM

SMILES: CN(C)c1c(Br)cc2cc(C(=O)NS(=O)(=O)c3ccccc3-c3ccccc3)oc2c1F [Example 206, N-([1,1′-Biphenyl]-2-sulfonyl)-5-bromo-6-(dimethylamino)-7-fluoro-1-benzofuran-2-carboxamide]
- EC50 [1, 5]: > 20 µM
- EC50 [2]: > 2e-05 M
- IC50 ([3]; Homo sapiens, MVLN): 9500 nM

SMILES: COc1cc(C#N)ccc1S(=O)(=O)NC(=O)c1cc2ccc(N(C)C)cc2o1 [Example 53, N-(4-Cyano-2-methoxybenzene-1-sulfonyl)-6-(dimethylamino)-1-benzofuran-2-carboxamide]
- EC50 [1, 5]: > 20 µM
- EC50 [2]: 2.64e-07 M
- IC50 [4]: 440 nM

SMILES: O=C(NS(=O)(=O)c1ccccc1-c1ccccc1)c1cc2ccc(N3CCCC3=O)cc2o1 [Example 62, N-([1,1′-Biphenyl]-2-sulfonyl)-6-(2-oxopyrrolidin-1-yl)-1-benzofuran-2-carboxamide]
- EC50 [1, 5]: 11.4 µM
- EC50 [2]: 1.09e-06 M
- IC50 ([3]; Homo sapiens, MVLN): 3070 nM

SMILES: COCCOc1ccc(Cl)c(S(=O)(=O)NC(=O)c2cc3ccc(N(C)C)cc3o2)c1 [Example 164]
- EC50 [2]: > 2e-05 M
- IC50 ([3]; Homo sapiens, MVLN): > 20000 nM
- IC50 [4]: 4450 nM

SMILES: CN(C)c1ccc2cc(C(=O)NS(=O)(=O)c3cccnc3Cl)oc2c1 [Example 156]
- EC50 [2]: 4.97e-06 M
- IC50 ([3]; Homo sapiens, MVLN): 971 nM
- IC50 [4]: 3530 nM

SMILES: CN(C)c1ccc2cc(C(=O)NS(=O)(=O)c3ccc(F)c(F)c3F)oc2c1 [Example 153]
- EC50 [2]: 2.77e-06 M
- IC50 ([3]; Homo sapiens, MVLN): 2720 nM
- IC50 [4]: 906 nM

SMILES: Cc1cccc(C2CCCC2)c1S(=O)(=O)NC(=O)c1cc2ccc(N(C)C)cc2o1 [Example 157]
- EC50 [2]: 9.45e-06 M
- IC50 ([3]; Homo sapiens, MVLN): 6450 nM
- IC50 [4]: 3180 nM

SMILES: CC(C)Nc1cccc(F)c1S(=O)(=O)NC(=O)c1cc2ccc(N(C)C)cc2o1 [Example 155]
- EC50 [2]: 7.62e-06 M
- IC50 ([3]; Homo sapiens, MVLN): 1930 nM
- IC50 [4]: 932 nM

SMILES: CCCc1ccccc1S(=O)(=O)NC(=O)c1cc2ccc(N(C)C)cc2o1 [Example 52, 6-(Dimethylamino)-N-(2-propylbenzene-1-sulfonyl)-1-benzofuran-2-carboxamide]
- EC50 [1, 5]: > 20 µM
- EC50 [2]: 1.94e-07 M

SMILES: CN(C)c1ccc2cc(C(=O)NS(=O)(=O)c3c(OCc4ccccc4)cccc3OC3CCC3)oc2c1 [Example 69, N-[2-(Benzyloxy)-6-(cycolbutyloxy)benzene-1-sulfonyl]-6-(dimethylamino)-1-benzofuran-2-carboxamide]
- EC50 [2]: 3.84e-07 M
- IC50 ([3]; Homo sapiens, MVLN): 52.1 nM
- IC50 [4]: 4.5 nM

SMILES: C[C@@H](Oc1cccc(OC2CCC2)c1S(=O)(=O)NC(=O)c1cc2ccc(N(C)C)cc2o1)C(F)(F)F (single isomer, unassigned) [Example 222]
- EC50 [1]: > 20 µM
- IC50 [3]: 595 nM
- IC50 [4]: 30.6 nM

SMILES: Cc1ccc(S(=O)(=O)NC(=O)c2cc3ccc(N(C)C)cc3o2)c(OC(F)F)c1 [Example 159]
- EC50 [2]: 6.97e-07 M
- IC50 ([3]; Homo sapiens, MVLN): 519 nM
- IC50 [4]: 233 nM
